Data taken from patent publication US5262521A (SRI International, priority 1991, dated 1993).
Each block holds one compound with its values, some of them ahead of it. Where a SMILES comes first, the peptide text is derived from it. Where no end group is shown, it is not given here. [ ]: non-standard residue; d: D form. The star is where a group is joined. Boc = CC(C)(C)OC(=O)*

Assays:
[1] = tested on: spontaneously hypertensive rats; test: Blood pressure and heart rate measurements in spontaneously hypertensive rats; assay type: in vivo, rat; design: Diastolic Blood Pressure, Mean Change From Control: unit not given here
Protocol: This experiment was carried out to evaluate the effects of an ADE inhibitor compound of the invention upon blood pressure (systolic and diastolic) and heart rate in spontaneously hypertensive rats ("SHR"). Twenty-eight male SHR, weighing 200-300 g at the initiation of study, having a systolic blood pressure of 160 mm Hg or higher, and obtained from Charles River Laboratories (Wilmington, Mass.), were tested over a nine-day period. The animal room environment and photoperiod were controlled (temperature approximately 22° C.±3° C., humidity of 40 to 70%, 12 h light, 12 h dark), as was diet.
The compounds to be administered (compound (V), above, and rat ANF ("rANF")) were dissolved in a 0.9% saline solution and administered intravenously. The test animals were divided into seven distinct groups for purposes of dose administration, as follows:
Group 1. Four SHR rats were infused with 100 pmole/minute of RANF (0.026 ml/minute) for 20 minutes.
Group 2. Four SHR rats were administered an i.v. bolus of 2 mg/kg of compound (V).
Group 3. Four SHR rats were administered an i.v. bolus of 10 mg/kg of compound (V).
Group 4. Four SHR rats were infused with 0.2 mg/kg/min of compound (V) (0.026 ml/minute) for 20 minutes.
Group 5. Four SHR rats were administered an i.v. bolus of 2 mg/kg of compound (V) and then infused with 100 pmole/minute of RANF (0.026 ml/minute for 20 minutes.
Group 6. Four SHR rats were administered an i.v. bolus of 10 mg/kg of compound (V) and then infused with 100 pmole/minute of RANF (0.026 ml/minute) for 20 minutes.
Group 7. Four SHR rats were infused with 0.2 mg/kg/min of compound (V) (0.026 ml/minute) for 20 minutes and then infused with 100 pmole/minute of RANF ([…]) for 20 minutes.
Blood pressure and heart rate determinations were made at 5 minute intervals for 20 minutes prior to dose and at 5 minute intervals for a minimum of 40 minutes following the initiation of test article administration or until a return to control values was realized. Blood pressure was measured continuously for one minute using a Statham P23Db pressure transducer (Statham Instruments, Hata Rey, Puerto Rico), and a Grass Model 7 Polygraph (Glass Instrument Company, Quincy, Mass.). Heart rate was measured using a Narco biotachometer BT-1200 (Narco Biosystems, Houston, Tex.).

[2] = target: atrial peptide-degrading enzyme (ADE); test: Inhibition of ADE activity (AcAPI production from 50 μM AcAPII, HPLC); assay type: biochemical, bovine; conditions: Table 10
Protocol: The concentration of enzyme and AcAPII were chosen so that approximately 80% of the AcAPII was degraded in the absence of inhibitor. The production of AcAPI was determined by integration of the AcI peak, and percent inhibition by the inhibitors was calculated.
(e.) Enzyme Inhibitor Testing: To further characterize ADE, the extent of inhibition by several known peptidase inhibitors was determined.

[3] = tested on: atrial peptide-degrading enzyme (ADE); test: pooled fractions from the Dynamax HPLC ion exchange, or Sephacryl S-200 columns (ADE isolated from bovine kidney cortex); conditions: 37° C., up to two hours
[4] = (V) 20 min. infusion 0.2 mg/kg/min. i.v., interval 0 min
[5] = (V) 20 min. infusion 0.2 mg/kg/min. i.v., interval 5 min
[6] = (V) 20 min. infusion 0.2 mg/kg/min. i.v., interval 10 min
[7] = (V) 20 min. infusion 0.2 mg/kg/min. i.v., interval 15 min
[8] = (V) 20 min. infusion 0.2 mg/kg/min. i.v., interval 20 min
[9] = (V) 20 min. infusion 0.2 mg/kg/min. i.v., interval 25 min
[10] = (V) 20 min. infusion 0.2 mg/kg/min. i.v., interval 30 min
[11] = (V) 20 min. infusion 0.2 mg/kg/min. i.v., interval 35 min
[12] = (V) 20 min. infusion 0.2 mg/kg/min. i.v., interval 40 min
[13] = (V) bolus injection 2 mg/kg i.v., interval 0 min
[14] = (V) bolus injection 2 mg/kg i.v., interval 5 min
[15] = (V) bolus injection 2 mg/kg i.v., interval 10 min
[16] = (V) bolus injection 2 mg/kg i.v., interval 15 min
[17] = (V) bolus injection 2 mg/kg i.v., interval 20 min
[18] = (V) bolus injection 2 mg/kg i.v., interval 25 min
[19] = (V) bolus injection 2 mg/kg i.v., interval 30 min
[20] = (V) bolus injection 2 mg/kg i.v., interval 35 min
[21] = (V) bolus injection 2 mg/kg i.v., interval 40 min
[22] = (V) bolus injection 10 mg/kg i.v., interval 0 min
[23] = (V) bolus injection 10 mg/kg i.v., interval 5 min
[24] = (V) bolus injection 10 mg/kg i.v., interval 10 min
[25] = (V) bolus injection 10 mg/kg i.v., interval 15 min
[26] = (V) bolus injection 10 mg/kg i.v., interval 20 min
[27] = (V) bolus injection 10 mg/kg i.v., interval 25 min
[28] = (V) bolus injection 10 mg/kg i.v., interval 30 min
[29] = (V) bolus injection 10 mg/kg i.v., interval 35 min
[30] = (V) bolus injection 10 mg/kg i.v., interval 40 min
[31] = (V) bolus injections at 2 and 10 mg/kg
[32] = (V) infusion 0.2 mg/kg/minute for 20 minutes

Compound: Asn--Ser--Phe--Arg--Tyr
not cleaved [3]: 8% degraded

Compound: Boc-Asn-Ser-Phe-OMe
not cleaved [3]: 0% degraded

Compound: DVNTDRPG
not cleaved [3]: 4% degraded at 1 h, 6% degraded at 2 h

Compound: Hip--Ser--Phe--Arg
not cleaved [3]: 0% degraded

Compound: pGlu--His--Trp--Ser--Tyr--Gly--Leu--Arg--Pro--Gly-NH2
not cleaved [3]: 0% degraded at 1 h

Continued, in another order:

IC50 [2]: 14.5 µM
% Inhibition At 0.1 mM ([2]; 0.1 mM): 81%
Compound: CC(C)C[C@H](NC(=O)[C@@H](N)CO)C(=O)N[C@@H](CCCNC(=N)N)C(=O)N[C@@H](CCCNC(=N)N)C(=O)N[C@@H](CO)C(=O)N[C@@H](CO)C(=O)N[C@H](C)C(=O)NCC(=O)N[C@H](C)C(=O)N[C@@H](CC(N)=O)C(=O)N[C@@H](CS)C(=O)N[C@H](Cc1ccccc1)C(=O)N[C@@H](CCCNC(=N)N)C(=O)N[C@@H](Cc1ccc(O)cc1)C(N)=O [(V), Ser-Leu-Arg-Arg-Ser-Ser-DAla-Gly-DAla-Asn-Cys-DPhe-Arg-Tyr-NH2] (H-SLRRSS[dA]G[dA]NC[dF]RY-NH2)
Diastolic Blood Pressure, Mean Change From Control [1, 4]: -4
Systolic Blood Pressure, Mean Change From Control [1, 4]: -1
Diastolic Blood Pressure, Mean Change From Control [1, 5]: -12
Systolic Blood Pressure, Mean Change From Control [1, 5]: -10
Diastolic Blood Pressure, Mean Change From Control [1, 6]: -15
Systolic Blood Pressure, Mean Change From Control [1, 6]: -18
Diastolic Blood Pressure, Mean Change From Control [1, 7]: -18
Systolic Blood Pressure, Mean Change From Control [1, 7]: -16
Diastolic Blood Pressure, Mean Change From Control [1, 8]: -20
Systolic Blood Pressure, Mean Change From Control [1, 8]: -26
Diastolic Blood Pressure, Mean Change From Control [1, 9]: -13
Systolic Blood Pressure, Mean Change From Control [1, 9]: -16
Diastolic Blood Pressure, Mean Change From Control [1, 10]: -14
Systolic Blood Pressure, Mean Change From Control [1, 10]: -9
Diastolic Blood Pressure, Mean Change From Control [1, 11]: 0
Systolic Blood Pressure, Mean Change From Control [1, 11]: 0
Diastolic Blood Pressure, Mean Change From Control [1, 12]: -2
Systolic Blood Pressure, Mean Change From Control [1, 12]: +5
Duration of the blood pressure lowering following administration ([1]; (V) bolus 2 mg/kg): 20 min
Duration of the blood pressure lowering following administration ([1]; (V) bolus 10 mg/kg): 35 min
Diastolic Blood Pressure, Mean Change From Control [1, 13]: -61
Systolic Blood Pressure, Mean Change From Control [1, 13]: -80
Diastolic Blood Pressure, Mean Change From Control [1, 14]: -40
Systolic Blood Pressure, Mean Change From Control [1, 14]: -50
Diastolic Blood Pressure, Mean Change From Control [1, 15]: -14
Systolic Blood Pressure, Mean Change From Control [1, 15]: -30
Diastolic Blood Pressure, Mean Change From Control [1, 16]: -8
Systolic Blood Pressure, Mean Change From Control [1, 16]: -14
Diastolic Blood Pressure, Mean Change From Control [1, 17]: -10
Systolic Blood Pressure, Mean Change From Control [1, 17]: -13
Diastolic Blood Pressure, Mean Change From Control [1, 18]: +1
Systolic Blood Pressure, Mean Change From Control [1, 18]: -4
Diastolic Blood Pressure, Mean Change From Control [1, 19]: +5
Systolic Blood Pressure, Mean Change From Control [1, 19]: +1
Diastolic Blood Pressure, Mean Change From Control [1, 20]: +7
Systolic Blood Pressure, Mean Change From Control [1, 20]: +2
Diastolic Blood Pressure, Mean Change From Control [1, 21]: 0
Systolic Blood Pressure, Mean Change From Control [1, 21]: +4
Diastolic Blood Pressure, Mean Change From Control [1, 22]: -66
Systolic Blood Pressure, Mean Change From Control [1, 22]: -76
Diastolic Blood Pressure, Mean Change From Control [1, 23]: -76
Systolic Blood Pressure, Mean Change From Control [1, 23]: -119
Diastolic Blood Pressure, Mean Change From Control [1, 24]: -61
Systolic Blood Pressure, Mean Change From Control [1, 24]: -100
Diastolic Blood Pressure, Mean Change From Control [1, 25]: -55
Systolic Blood Pressure, Mean Change From Control [1, 25]: -84
Diastolic Blood Pressure, Mean Change From Control [1, 26]: -35
Systolic Blood Pressure, Mean Change From Control [1, 26]: -55
Diastolic Blood Pressure, Mean Change From Control [1, 27]: -27
Systolic Blood Pressure, Mean Change From Control [1, 27]: -41
Diastolic Blood Pressure, Mean Change From Control [1, 28]: -17
Systolic Blood Pressure, Mean Change From Control [1, 28]: -29
Diastolic Blood Pressure, Mean Change From Control [1, 29]: -15
Systolic Blood Pressure, Mean Change From Control [1, 29]: -21
Diastolic Blood Pressure, Mean Change From Control [1, 30]: +10
Systolic Blood Pressure, Mean Change From Control [1, 30]: +9
Effect on systolic and diastolic blood pressure, in words [1, 31]: Dose-related decreases in systolic and diastolic blood pressure
Effect upon heart rate [1, 31]: No effects upon heart rate
Duration of blood pressure decrease following the conclusion of the dose [1, 32]: 10 min
Effect on systolic and diastolic blood pressure, in words [1, 32]: minimal decreases in systolic and diastolic blood pressure
Effect upon heart rate [1, 32]: No effects upon heart rate

not cleaved [3]: 0% degraded at 2 h
Compound: LYKKIIKKLLES
